Two compounds from paper PMC4823786, “Redirection of pyruvate flux toward desired metabolic pathways through substrate channeling between pyruvate kinase and pyruvate-converting enzymes in Saccharomyces cerevisiae” (Scientific Reports, 2016) can be followed below.

In this test the target is T1, His6-LdhA (Leuconostoc mesenteroides, UniProt Q03VC9).
T1 construct: gene LEUM_1756; N-terminal His6 tag (pET28b), expressed in E. coli Rogetta gami2 (DE3) pLysS, Ni-NTA purified
In words: NADH oxidation monitored at […] nm. The format is biochemical. To be noted: 10 mM sodium pyruvate, 0.2 mM β-NADH, 50 mM Tris-HCl pH 7.0.

T1 sequence (Q03VC9 entry or part of it): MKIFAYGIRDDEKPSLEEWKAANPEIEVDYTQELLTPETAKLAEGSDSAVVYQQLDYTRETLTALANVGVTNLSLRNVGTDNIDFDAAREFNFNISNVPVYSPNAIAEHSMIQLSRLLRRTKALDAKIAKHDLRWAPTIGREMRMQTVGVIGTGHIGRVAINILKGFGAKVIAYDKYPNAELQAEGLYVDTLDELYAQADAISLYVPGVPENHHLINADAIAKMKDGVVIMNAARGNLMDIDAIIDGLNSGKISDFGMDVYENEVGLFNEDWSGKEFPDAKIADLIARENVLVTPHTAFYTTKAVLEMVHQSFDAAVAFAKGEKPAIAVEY

In the case of `NC(=O)C1=CN([C@@H]2O[C@H](COP(=O)(O)OP(=O)(O)OC[C@H]3O[C@@H](n4cnc5c(N)ncnc54)[C@H](O)[C@@H]3O)[C@@H](O)[C@H]2O)C=CC1` [NADH], the “NADH oxidation monitored at 340 nm” value is on record as “reduction of pyruvate to lactate was monitored by measuring the oxidation rate of NADH”.

Consider `CC(=O)C(=O)O` [pyruvate], for which the “NADH oxidation monitored at 340 nm” value is on record as “reduction of pyruvate to lactate was monitored by measuring the oxidation rate of NADH”.
